Results reported in PubChem BioAssay (NCI).
Values joined by “and” are separate entries in the source; they are usually repeats but may differ in a detail not shown here. Equal entries are not always repeated.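 Exposure lasted 48 hours, with cells grown in 96-well plates and compounds tested at five concentrations. Here, GI50 denotes the concentration required for 50% inhibition of growth. TGI: total growth inhibition.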

System: MDA-MB-468 breast
Assay: inhibition of tumour cell growth, NCI panel, 48 h

| Structure (SMILES) | GI50 | TGI |
| --- | --- | --- |
| CN(C)c1ccc2nc3ccc(=[N+](C)C)cc-3oc2c1 | 0.62 µM | 3.58 µM |
| O=C(Nc1cccc(Cl)c1)Nc1ncc(CCNc2ncnc3ccsc23)s1 | 0.196 µM and 0.952 µM | 8.39 µM and > 10 µM |
| CCCN1C(=O)/C(=c2\sc3n(c2=O)C2C(NN=3)N(CC)C(=O)N2CC)c2ccccc21 (stereo not given) | 0.464 µM | 10.4 µM |
| CC1=C2C(=C[C@@](C)(COC(=O)c3ccc(S(=O)(=O)F)cc3)[C@@H]2OC(=O)c2ccc(S(=O)(=O)F)cc2)C(=O)[C@](C)(O)C12CC2 | 0.187 µM | 0.465 µM |
| CN(C)CCNC(=O)c1cccn2c(=O)c3cc4ccccc4cc3nc12 | 0.299 µM | 1.12 µM |
| NC(=O)[C@H]1CCN(c2ncnc(N)c2F)C[C@@H]1N1CCC[C@@H](Nc2cc(Cl)cc(C(F)(F)F)c2)C1=O | 11.2 µM | 34.4 µM |
| CCN(CC)c1ccc(/C=C/c2cc(C)c3ccccc3n2)cc1 | 3.06 µM | 9.02 µM |
| N#CSc1ncnc2nc[nH]c12 | 0.522 µM | > 100 µM |
| N=C(N)c1nn(C2OC(CO)C(O)C2O)c2nc[nH]c(=O)c12 (stereo not given) | 0.372 µM | 1.69 µM |
| O=c1cc(CNc2cc(F)cc(F)c2)c2ccc(I)cc2[nH]1 | 0.409 µM | > 100 µM |
| Cc1cc(N2CCCCC2)nc(N(CCNc2ccnc3cc(Cl)ccc23)Cc2ccco2)n1 | 1.74 µM | 3.87 µM |
| CC[C@H](Nc1nc(N)nc(C)c1C#N)c1nc2cccc(CN(C)c3ncc(C(=O)NO)cn3)c2c(=O)n1-c1ccccc1 | 0.367 µM | 10.5 µM |
| COc1ccc([C@@H]2[C@@H](O)C(=O)N2c2cc(OC)c(OC)c(OC)c2)cc1F | 0.0269 µM | 0.398 µM |
| OCC1OC(n2ccc3c2ncn2ncnc32)C(O)C1O (stereo not given) | 0.279 µM | 3.19 µM |
| CC(=O)/C(N=Nc1ccc2oc(=O)ccc2c1)=C(\C)O | 2.74 µM | 12.7 µM |
| c1ccc2nc(Cn3c[n+](Cc4ccc5ccccc5n4)c4ccccc43)ccc2c1 | 0.645 µM | 5.44 µM |
| CCn1c(-c2nonc2N)nc2cncc(C(=O)N3CCNCC3)c21 | > 25 µM | > 25 µM |
| CC12CCC=CC1CCC1C2CCC2(C)C(c3ccc(=O)oc3)CCC12O (stereo not given) | 0.313 µM | 1.22 µM |
| COc1ccc(Cn2nc(-c3cc(OC)c(OC)c(OC)c3)c3c2CCc2cnoc2-3)cc1OC | 1.94 µM | 8.84 µM |
| C[C@]12CC[C@H]3[C@@H](CCC4=CC(=O)CC[C@@H]43)[C@@H]1CC[C@@H]2OC(=O)N(CCCl)N=O | 0.512 µM | 5.7 µM |
| CCCN(Cc1ccc(F)cc1)c1ccc(CO)c(Cl)c1 | 0.0212 µM | 0.0625 µM |
| CCN(CC)CCOc1ccc(C(=C(C)c2ccc(Cl)cc2)c2ccc(OCCN(CC)CC)cc2)cc1 | 0.556 µM | 1.1 µM |
| O=C1C(Cl)=C(N/N=c2/[nH][nH]/c(=N/NC3=C(Cl)C(=O)c4ccccc4C3=O)c3ccccc23)C(=O)c2ccccc21 | 14.7 µM | 32.9 µM |

| Structure (SMILES) | GI50 | TGI |
| --- | --- | --- |
| COc1cc2cc(Oc3ccc(NC(=O)Nc4ccc(Cl)c(C(F)(F)F)c4)cc3)c(C)nc2cc1OCCN1CCCCC1 | 1.34 µM | 2.85 µM |
| CCN=C1C=CC(=C(c2ccc(N(C)C)cc2)c2ccc(N(C)C)cc2)c2ccccc21 | 0.047 µM | 0.346 µM |
| CCc1ccc(NC(=O)Nc2c[nH]c3ccccc23)cc1 | 18.8 µM | > 56.5 µM |
| O=C(CCl)c1ccc([N+](=O)[O-])o1 | 1.06 µM | 2.77 µM |
| C[C@]12CC[C@H]3[C@@H](CC=C4C[C@@H](O)CC[C@@]43C)[C@@H]1CC[C@@H]2[C@](C)(O)CCc1cccnc1 | 1.91 µM | > 100 µM |
| CC1=C(C)C(=O)C(Nc2cccc(C(F)(F)F)c2)=C(Cl)C1=O | 1.24 µM | 2.94 µM |
| Fc1ccc(-c2nc3n(c2-c2ccncc2)CCS3)cc1 | 4.63 µM | > 25 µM |
| C=C(C)[C@@H]1CC[C@]2(C(=O)NCCCN)CC[C@]3(C)[C@H](CC[C@@H]4[C@@]5(C)CC[C@H](O)C(C)(C)[C@@H]5CC[C@]43C)[C@@H]12 | 12.6 µM | 48.5 µM |
| CCCC(=O)NC(c1cccnc1)c1ccc2c(C)ccnc2c1O (stereo not given) | 1.68 µM | 6.91 µM |
| COc1cc(Cn2cc3c(c2)-c2oncc2CC3)cc(OC)c1OC | 0.0147 µM | 0.0541 µM |
| CC(C)(O)c1ccc(N2CCN(c3nnc(Cc4ccccc4)c4ccccc34)CC2)nc1 | 2.78 µM | 12.8 µM |
| COc1cc2nc(Cl)nc(Nc3cccc(C(=O)/C=C/c4ccccc4)c3)c2cc1OC | 3.39 µM | > 100 µM |
| O=C(CCN1CCCC1)Nc1ccc2c(NCc3ccc(F)cc3)c3ccccc3nc2c1 | 0.318 µM | 1.4 µM |
| O=S(=O)(c1ccc(NC(=S)NCc2cccnc2)cc1)N1CCCCC1 | 9.8 µM | 95.8 µM |
| CCOC(=O)Cc1c[nH]c(=S)[nH]c1=O | > 100 µM | > 100 µM |
| COc1cc2c(cc1OC)-c1ccc3cc4c(cc3c1N(CCN1CCCC1)C2)OCO4 | 0.653 µM | 2.2 µM |
| N#Cc1ncc(/N=C/c2ccc(N(CCCl)CCCl)cc2)s1 | 0.436 µM | 3.65 µM |
| COc1ccc(-c2ccc(-c3ccc(C(=N)N)nc3)s2)cc1 | 1.63 µM | 3.11 µM |
| CCN1C(=O)N(CC)C2C1NN=c1s/c(=C3\C(=O)N(C(C)C)c4ccccc43)c(=O)n12 (stereo not given) | 0.321 µM | 5.58 µM |
| CC1=C(C(=O)OCc2ccccc2)C(c2ccc3c(c2)OCO3)n2c(nc3ccccc32)N1 (stereo not given) | 0.247 µM | 39.5 µM |
| COc1cccc(C2=C(c3cn(C)c4ccccc34)C(=O)NC2=O)c1 | 5.13 µM | > 25 µM |
| CNC(=O)c1cc(N2CCc3cc(NC(=O)Nc4ccc(N5CCN(C)CC5)c(C(F)(F)F)c4)ccc32)ccn1 | 3.68 µM | 7.95 µM |
